# According to patent publication US20220002806A1, “BIOMARKER” (ERBER AKTIENGESELLSCHAFT, priority 2018, published 2022):
# How the values were obtained:
# pregnane X receptor = target: T1, pregnane X receptor (Homo sapiens, UniProt O75469); details: in vitro; Ayed-Boussema et al. 2011; cited from earlier work
# T1 sequence (O75469 1-434): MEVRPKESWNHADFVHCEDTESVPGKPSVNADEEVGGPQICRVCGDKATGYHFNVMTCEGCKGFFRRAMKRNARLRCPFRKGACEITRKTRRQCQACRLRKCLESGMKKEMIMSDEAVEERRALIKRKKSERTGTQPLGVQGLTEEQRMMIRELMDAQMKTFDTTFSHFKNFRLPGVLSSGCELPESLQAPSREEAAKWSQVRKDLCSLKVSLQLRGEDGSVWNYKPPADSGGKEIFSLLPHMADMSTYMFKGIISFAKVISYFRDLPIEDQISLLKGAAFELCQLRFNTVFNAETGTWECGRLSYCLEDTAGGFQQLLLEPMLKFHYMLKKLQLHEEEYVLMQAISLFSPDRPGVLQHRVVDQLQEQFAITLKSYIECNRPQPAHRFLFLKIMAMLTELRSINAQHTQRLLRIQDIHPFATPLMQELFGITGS
# prepuberal gilts = prepuberal gilts fed diets containing 1-5 ppm ZEN; Osweiler; cited from earlier work
# estrogen receptors α = estrogen receptors α (Homo sapiens, UniProt P03372); details: Zinedine et al. 2007; cited from earlier work
# miRNAs in serum = assay: Targeted qPCR-based miRNA analysis in blood serum of ZEN-exposed piglets; format: in vivo, pig
# From the text: (§1) Weaned female piglets (sow: Landrace×Large White, boar: Pietrain; 30+/−2 days old) were obtained from a local producer and individually tagged. Piglets were housed in slatted floor pens under controlled environmental conditions. After an acclimatization period of seven days, twenty-four female piglets were selected based on both body weight and vulva size, and allocated to one of four groups (6 animals/group). Piglets received either blank feed (negative control; Ctrl) or feed contaminated with ZEN in three increasing concentrations (ZEN low: 0.17 mg/kg diet; ZEN medium: 1.5 mg/kg diet; ZEN high: 4.6 mg/kg diet). During the 28-day experimental period, each treatment group was given free access to water and the assigned diet. The pigs were observed daily and weighed weekly.
# (§2) Blood was collected weekly (d 0, 6, 14, 21 and 28) from individual animals by punctuation of the vena cava cranialis (Primavette® EDTA, Kabe Labortechnik GmbH, Nümbrecht-Elsenroth, Deutschland). After centrifugation (1500×g, 20 min), serum samples were stored at −80° C. for later analysis. Vulva length and width were measured at regular intervals with a caliper to determine the dietary ZEN effects. The vulva area was calculated as vulva length×vulva width, as previously reported (Jiang et al. 2011. Journal of animal science, 89, 3008-3015). Eight measurements were done per piglet over the experimental period.
# miRNA extraction and qPCR analysis: Unlike the small-RNA-Seq analysis, all the animals from the feeding trial were used for investigations of the miRNA profile in the serum (6 per group; total of 24 animals). RNA was isolated from the serum samples using the miRNeasy Mini Kit (Qiagen, Germany). […] To calculate the cycle of quantification values (Cq-values), the second derivative method was used, as known by a person skilled in the art. Cq-values were normalized to the mean Cq-value in each sample (global mean normalization) by subtracting the individual miRNA Cq-value from the Cq average calculated for that sample. […]
# [1] = Zinedine et al. 2007; cited from earlier work
# weaned female piglets = assay: Feeding trial in weaned female piglets: vulva surface, reproductive tract weight, body weight; format: in vivo, pig; details: for reproductive tract weight relative to body weight, average (±SD): [reproductive tract (in grams)/body weight (in kg)]*100; for increase of vulva surface compared to the control group: d 26
# From the text: as §1
# Diets were manufactured at BIOMIN AN (Herzogenburg, Austria), and formulated according to the energy and amino acid requirements for piglets. Four different batches were prepared, one control batch and three batches artificially contaminated with ZEN (Fermentek LTD, Israel; purity >99.2%). Homogenous distribution of ZEN within the diets was achieved by preparation of maltodextrin premixes, which contained appropriate amounts of ZEN and were added to the basal feed at an inclusion rate of 0.9% (w/w). Final ZEN concentrations were verified by HPLC-MS (Romer Labs GmbH) and confirmed.
# as §2
# After 28 days of dietary exposure to the experimental diets, pigs were anesthetized by intramuscular injection of ketamine (0.1 mL/kg body weight (b.w.) Narketan®, Vétoquinol GmbH, Ravensburg, Germany) and azaperone (0.03 mL/kg b.w.; Stresnil®, Janssen-Cilag, Neuss, Germany). Subsequently, animals were euthanized by intracardial injection of T61® (Intervet, UnterschleiBheim, Germany; 0.1 ml/kg b.w.). The whole reproductive tract was collected, weighed and examined for any clinical signs. Small pieces of the corpus uteri and the mid-jejunum were dissected, placed into 1 mL of RNAlater, and stored overnight at 4° C. The next day, all the tissue samples were transferred to −80° C. for long-term storage, and until processed for transcriptomics analysis.
# estrogen receptors β = estrogen receptors β (Homo sapiens, UniProt Q92731); details: Zinedine et al. 2007; cited from earlier work
# [2] = Ctrl vs ZEN high group (4.6 mg/kg diet), day 6 or day 28, unadjusted p-value ≤0.1
# Chain of estrogen receptors α (P03372 whole entry): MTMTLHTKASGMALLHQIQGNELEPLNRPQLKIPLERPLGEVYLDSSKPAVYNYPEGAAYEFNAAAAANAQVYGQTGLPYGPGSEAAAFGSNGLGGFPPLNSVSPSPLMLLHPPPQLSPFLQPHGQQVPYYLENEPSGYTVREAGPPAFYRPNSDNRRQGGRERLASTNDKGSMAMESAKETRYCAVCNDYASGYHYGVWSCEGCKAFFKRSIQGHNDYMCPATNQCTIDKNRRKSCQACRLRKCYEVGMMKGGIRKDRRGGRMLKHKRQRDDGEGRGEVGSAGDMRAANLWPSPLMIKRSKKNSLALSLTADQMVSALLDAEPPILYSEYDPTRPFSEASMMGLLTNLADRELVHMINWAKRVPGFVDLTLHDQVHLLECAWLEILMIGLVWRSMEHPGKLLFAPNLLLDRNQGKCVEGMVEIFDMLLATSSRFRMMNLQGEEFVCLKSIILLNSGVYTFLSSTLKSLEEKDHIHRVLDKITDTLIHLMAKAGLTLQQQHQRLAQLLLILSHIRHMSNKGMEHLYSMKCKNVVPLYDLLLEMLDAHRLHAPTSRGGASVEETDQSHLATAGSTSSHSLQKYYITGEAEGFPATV
# Chain of estrogen receptors β (Q92731 whole entry): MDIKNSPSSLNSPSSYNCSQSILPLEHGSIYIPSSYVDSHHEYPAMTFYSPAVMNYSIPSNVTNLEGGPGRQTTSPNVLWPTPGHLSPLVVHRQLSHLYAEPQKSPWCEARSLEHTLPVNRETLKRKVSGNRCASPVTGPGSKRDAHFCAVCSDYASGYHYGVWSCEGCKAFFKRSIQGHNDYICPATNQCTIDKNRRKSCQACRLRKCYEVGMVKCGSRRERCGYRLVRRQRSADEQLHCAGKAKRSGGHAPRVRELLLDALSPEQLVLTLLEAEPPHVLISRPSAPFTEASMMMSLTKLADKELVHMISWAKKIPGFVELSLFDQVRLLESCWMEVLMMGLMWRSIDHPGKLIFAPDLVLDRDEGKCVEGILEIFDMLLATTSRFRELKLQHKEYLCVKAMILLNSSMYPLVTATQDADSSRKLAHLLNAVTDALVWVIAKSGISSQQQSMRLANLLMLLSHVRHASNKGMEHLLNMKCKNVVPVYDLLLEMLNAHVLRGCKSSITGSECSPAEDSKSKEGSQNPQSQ
structure (smiles),measurement,setting,value
"C[C@H]1CCCC(=O)CCC/C=C/c2cc(O)cc(O)c2C(=O)O1 [ZEN, (2E,11S)-15,17-dihydroxy-11-methyl-12-oxabicyclo[12.4.0]octadeca-1(18),2,14,16-tetraene-7,13-dione]",action on pregnane X receptor,pregnane X receptor,activates
same,mammary gland development,prepuberal gilts,triggered
same,agonist action on estrogen receptor α,estrogen receptors α,full
same,"serum levels of ssc-miR-1, ssc-miR-142-3p, ssc-miR-181c and ssc-miR-182",miRNAs in serum; [2],down-regulated
same,"serum levels of ssc-miR-140-3p, ssc-miR-455-3p, ssc-miR-455-5p and ssc-miR-542-3p",miRNAs in serum; [2],Up-regulated
same,"log 2-transformed fold changes of serum ssc-miR-129a, ssc-miR-135, ssc-miR-206, ssc-miR-432-5p, ssc-miR-493-3p and ssc-miR-503","miRNAs in serum; Ctrl vs ZEN high group, log 2 fold changes ≤−0.8 or ≥0.8",considerable effect
same,acute toxicity,[1],low
same,days of exposure after which vulva surface was significantly increased,weaned female piglets; ZEN high (4.6 mg/kg diet),six
same,"reproductive tract weight relative to body weight, average (±SD)","weaned female piglets; ZEN high (4.6 mg/kg diet), 28 days",353.4±110.6
same,increase of vulva surface compared to the control group,weaned female piglets; ZEN high (4.6 mg/kg diet),+230%
same,"reproductive tract weight relative to body weight, average (±SD)","weaned female piglets; ZEN low (0.17 mg/kg diet), 28 days",55.8±17.2
same,days of exposure after which vulva surface was significantly increased,weaned female piglets; ZEN medium (1.5 mg/kg diet),thirteen
same,"reproductive tract weight relative to body weight, average (±SD)","weaned female piglets; ZEN medium (1.5 mg/kg diet), 28 days",121.4±43.4
same,increase of vulva surface compared to the control group,weaned female piglets; ZEN medium (1.5 mg/kg diet),+90%
same,effect on the body weight of the piglets,"weaned female piglets; independent of the concentration (0.17-4.6 mg/kg diet), 28 days",no effect
same,agonist action on estrogen receptor β,estrogen receptors β,partial agonist
